Test results as given in paper PMC8645997, “Population Pharmacokinetics of Polymyxin B in Obese Patients for Resistant Gram-Negative Infections” (Frontiers in Pharmacology, 2021).
Where a SMILES comes first, the peptide text is derived from it. Bridges are numbered along the chain shown (N, C = ends). [ ]: non-standard residue; d: D form. The star is where a group is joined. X1 = CC[C@H](C)CCCCC(=O)*; Dab = NCC[C@H](N)C(=O)O

Columns and labels:
[1] = daily dose ≥250 mg; 151 patients; 95% CI 1.15–16.25, p = 0.03; ref Nelson et al., 2015; cited from earlier work
Procedure: From a toxicology perspective, the use of TBW-based dosing in obese patients can lead to polymyxin B overexposure and risk of acute kidney injury (AKI). In a retrospective study of 151 patients, Nelson et al. discovered that a daily dose ≥250 mg was an independent predictor of nephrotoxicity (OR 4.32, 95% CI 1.15–16.25, p = 0.03) in multivariate analysis ([Nelson et al., 2015]). […] These studies raised an important point abo ...

[2] = cited from earlier work
Source text: As a weight-based dosing antibiotic with a narrow therapeutic window, polymyxin B regimen in obese patients is particularly concerning. The present study developed a two-compartment model to describe the population PK profile of polymyxin B in obese patients. […] In terms of V and V2 estimates, the values varied widely between studies ([Avedissian et al., 2019]). Compared with the PK parameters reported by our group and Sandri et al, the typical V value (11.24 L, Table 2) was higher than thos ... || Obesity can cause related pathophysiological changes that could theoretically alter the PK characteristic of drugs, such as increased Vd, altered hepatic metabolism, renal CL, and protein binding. An understanding of how the Vd of a drug changes in obesity is critical because this parameter determines loading-dose selection ([Hanley et al., 2010]). Vd is affected by physicochemical property (lipophilicity or hydrophilicity), plasma protein binding rate, and tissue blood flow ([Al-Dorzi et al., 2014]; [Polso et al., 2014]). Hydrophilic drugs typically have a low Vd, poor tissue penetration, les ...

[3] = Population PK modeling of polymyxin B plasma concentrations in obese patients (two-compartment model, Phoenix NLME); assay type: in vivo, human
Procedure: This retrospective observational study was performed in the First Affiliated Hospital of Zhengzhou University between April 2018 and March 2021. The inclusion criteria for subjects were as follows: 1) patients ≥18 years old; 2) body mass index (BMI) ≥ 30; 3) patients had received intravenous polymyxin B (sulfate; polymyxin B for injection, Shanghai First Biochemical Pharmaceutical Co., Ltd.) for MDR Gram-negative infections; 4) blood sampling at steady state for therapeutic drug monitoring (TDM) was available. Subjects were excluded if 1) patients with continuous renal replacement therapy (CRRT) or extracorporeal membrane oxygenation (ECMO); 2) concentrations were below the lower limit of quantitation. The study protocols were approved by Zhengzhou University Medical Research and Ethics Committee (2021-KY-0441).
Polymyxin B was given to all patients empirically with a 100–200 mg loading dose and a 50–100 mg maintenance dose twice daily. The routine infusion time was at least 1 hour. Polymyxin B treatment, including dosage, infusion time, and treatment course, was determined by their medical teams. Sampling procedures included the following two categories.
From April 2018 to May 2019, 4-7 blood samples (mainly C0h, C1h, C1.5h, C2h, C4h, C6h, and C8h) were collected on day 4 to calculate the area under the concentration across 12 h at steady state (AUCss,12h). From June 2019 to March 2021, according to our previous study, a 2-point model using the limited sampling strategy was a practical approach to estimating polymyxin B AUCss,12h. Therefore, two blood samples (C0h and C2h) were collected. The infusion time was 1 hour ([Wang et al., 2020c]).
Blood samples were immediately centrifuged at 3,500 × g for 10 min. The supernatant was collected and then stored at −80°C until analysis. Polymyxin B concentrations (i.e., the polymyxin B1 concentration plus the polymyxin B2 concentration) were analyzed using a validated high-performance liquid chromatography-mass spectrometry method published by our laboratory ([Wang et al., 2020b]). As previously reported, the assay was linear over 0.2–10.0 μg/ml for polymyxin B1 and 0.05–2.5 μg/ml for polymyxin B2. The intra- and inter-batch assay precision (RSD) ranged from 0 to 13.93% for quality control samples, and their corresponding accuracy (% relative error) ranged from −11.56 to 11.13% ([Wang et al., 2020b]). Since polymyxin B1 and B2 had similar structures, molecular weight, pharmacological activities, and pharmacokinetic characteristics, the plasma concentration of polymyxin B was summed to derive the total polymyxin B1 and B2 concentrations ([Tam et al., 2011]; [Manchandani et al., 2016]).
Population PK modeling process was performed with the Phoenix® NLME software (v7.0, Pharsight, Mountain View, CA, USA). In brief, different PK models (one-, two-, or three-compartment models) were compared using the first-order conditional estimation-extended least-squares (FOCE ELS) method. The inter-individual variability (IIV) of PK parameters was assumed by additive, proportional, or mixed (additive plus proportional) models. The coefficient of variation (CV), the distribution of residuals in diagnostic plots, and the likelihood ratio test (-2 loglikelihood; -2LL) were used to evaluate the model. Following the basic structural modeling step, a stepwise process was used to consider several covariates, including age, TBW, BMI, IBW, ABW, sex, SOFA score, CrCL, adjusted CrCL, ideal CrCL, serum creatinine, and GFR. A drop >6.63 (p = 0.01) of objective function value (OFV; -2LL) for forward addition and an increase of OFV >10.83 (p = 0.001) for backward elimination were the inclusion criteria for covariates. After covariate selection, based on the scatter plot and ΔOFV (a drop of OFV >6.63), the relevant correlation between random effects was also explored.
For model evaluation, the goodness-of-fit (GOF) plots were used to evaluate the reliability of the final model. […]

[4] = intermediate to high protein binding; ref Sandri et al., 2013; Abodakpi et al., 2015; Avedissian et al., 2019; cited from earlier work
Source text: Obesity can cause related pathophysiological changes that could theoretically alter the PK characteristic of drugs, such as increased Vd, altered hepatic metabolism, renal CL, and protein binding. An understanding of how the Vd of a drug changes in obesity is critical because this parameter determines loading-dose selection ([Hanley et al., 2010]). Vd is affected by physicochemical property (lipophilicity or hydrophilicity), plasma protein binding rate, and tissue blood flow ([Al-Dorzi et al., 2014]; [Polso et al., 2014]). Hydrophilic drugs typically have a low Vd, poor tissue penetration, les ...

[5] = obese patients, n = 26, iv, steady state

CC[C@H](C)CCCCC(=O)N[C@@H](CCN)C(=O)N[C@H](C(=O)N[C@@H](CCN)C(=O)N[C@H]1CCNC(=O)[C@H]([C@@H](C)O)NC(=O)[C@H](CCN)NC(=O)[C@H](CCN)NC(=O)[C@H](CC(C)C)NC(=O)[C@@H](Cc2ccccc2)NC(=O)[C@H](CCN)NC1=O)[C@@H](C)O [polymyxin B] (X1-[Dab]T[Dab][Dab][Dab][dF]L[Dab][Dab]T; lactam 4-C)
OR of nephrotoxicity (independent predictor, multivariate analysis) [1]: 4.32
Vd ([2]; low to intermediate Vd, ref Sandri et al., 2013, Abodakpi et al., 2015, Avedissian et al., 2019): 6.3 to 47.2 L
typical CL value, previous reports ([2]; previous reports, ref Avedissian et al., 2019): 1.87 to 2.63 L/h
V2 value, reported previously ([2]; ref Sandri et al., 2013, Wang et al., 2020c, 2021): 10.57 to 11.97 L
typical V value, reported previously ([2]; reported by our group and Sandri et al, ref Sandri et al., 2013, Wang et al., 2020c, Wang et al., 2021): 6.22 to 6.98 L
tvCL, bootstrap median ([3]; bootstrap, 1,000 samples): 2.73
tvQ, bootstrap median ([3]; bootstrap, 1,000 samples): 7.71
tvV2, bootstrap median ([3]; bootstrap, 1,000 samples): 40.46
tvV, bootstrap median ([3]; bootstrap, 1,000 samples): 11.46
tvV, typical value of central compartment distribution volume (V), final model estimate ([3]; obese patients (BMI >=30), n = 26, 142 plasma concentrations, iv, steady state): 11.24 L
tvCL, central compartment clearance, final model estimate [3, 5]: 2.86 L/h
tvQ, inter-compartmental clearance, final model estimate [3, 5]: 7.36
tvV2, peripheral compartment distribution volume, final model estimate [3, 5]: 39.70 L
protein binding [4]: 58–90%
